# US12084472B2 (Ardelyx, Inc., priority 2015, dated 2024)
# Molecular target: T1, human TGR5 (Homo sapiens, UniProt Q8TDU6)
# T1 construct: expressed in transfected cells; host or cells: HEK293
# T1 sequence (Q8TDU6 1-330): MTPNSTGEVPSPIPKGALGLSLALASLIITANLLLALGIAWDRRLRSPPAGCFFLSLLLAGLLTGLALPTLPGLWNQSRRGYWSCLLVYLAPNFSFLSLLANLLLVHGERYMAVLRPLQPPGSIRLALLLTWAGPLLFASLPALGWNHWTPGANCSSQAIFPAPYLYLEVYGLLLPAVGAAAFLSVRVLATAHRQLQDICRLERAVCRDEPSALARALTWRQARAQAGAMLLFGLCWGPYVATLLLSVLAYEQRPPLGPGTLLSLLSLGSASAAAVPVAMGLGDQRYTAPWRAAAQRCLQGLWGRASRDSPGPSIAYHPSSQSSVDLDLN
# Test: Cell-based TGR5 assay (cAMP generation, HTRF)
# Details: HEK293 cells stably transfected with human TGR5; cAMP by HTRF; 30 minutes at 37° C.; read-out: pEC50 Human TGR5 (converted)
# Method in brief: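 First, compounds in 3-fold serial dilution were placed in HBSS with 10 mM HEPES pH 7.4 and 0.5 mM IBMX. Next, human TGR5-expressing HEK293 cells were added and incubated 30 min at 37° C. Finally, cAMP was detected by HTRF and pEC50 derived by logistic fitting.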
row,EC50 [nM],SMILES
1,< 100,"O=C(NCCCCC[S+]([O-])c1ccc(Cl)c(COC2(c3cnccc3-c3ccccc3OC3CC3)CC2)c1)N[C@@H](CO)[C@@H](O)[C@H](O)[C@H](O)CO (stereo partly drawn) [Compound I-642, 1-{5-[4-chloro-3-({1-[4-(2-cyclopropoxyphenyl)pyridin-3-yl]cyclopropoxy}methyl)benzenesulfinyl]pentyl}-3-[(2S,3R,4S,5R)-1,3,4,5,6-pentahydroxyhexan-2-yl]urea]"
2,< 100,"O=C(NCCCCCS(=O)(=O)c1ccc(Cl)c(COC2(c3cnccc3-c3ccccc3OC3CC3)CC2)c1)N[C@@H](CO)[C@@H](O)[C@H](O)[C@H](O)CO [Compound I-643, 1-{5-[4-chloro-3-({1-[4-(2-cyclopropoxyphenyl)pyridin-3-yl]cyclopropoxy}methyl)benzenesulfonyl]pentyl}-3-[(2S,3R,4S,5R)-1,3,4,5,6-pentahydroxyhexan-2-yl]urea]"
3,< 100,"O=C(NCCOCC[S+]([O-])c1ccc(Cl)c(COC2(c3cnccc3-c3ccccc3OC3CC3)CC2)c1)N[C@@H](CO)[C@@H](O)[C@H](O)[C@H](O)CO (stereo partly drawn) [Compound I-644, 1-(2-{2-[4-chloro-3-({1-[4-(2-cyclopropoxyphenyl)pyridin-3-yl]cyclopropoxy}methyl)benzenesulfinyl]ethoxy}ethyl)-3-[(2S,3R,4S,5R)-1,3,4,5,6-pentahydroxyhexan-2-yl]urea]"
4,< 100,"Cc1ccc(SCCCCC(=O)NC[C@H](O)[C@@H](O)[C@H](O)[C@H](O)CO)nc1CNC1(c2cnccc2-c2ccccc2OC2CC2)CC1 [Compound I-645, 5-({6-[({1-[4-(2-cyclopropoxyphenyl)pyridin-3-yl]cyclopropyl}amino)methyl]-5-methylpyridin-2-yl}sulfanyl)-N-[(2S,3R,4R,5R)-2,3,4,5,6-pentahydroxyhexyl]pentanamide]"
5,< 100,"CN(C[C@H](O)[C@@H](O)[C@H](O)[C@H](O)CO)C(=O)CCCS(=O)(=O)c1ccc(Cl)c(CNC2(c3cnccc3-c3ccccc3OC3CC3)CC2)c1 [Compound I-646, 4-{4-chloro-3-[({1-[4-(2-cyclopropoxyphenyl)pyridin-3-yl]cyclopropyl}amino)methyl]benzenesulfonyl}-N-methyl-N-[(2S,3R,4R,5R)-2,3,4,5,6-pentahydroxyhexyl]butanamide]"
6,126 to 1000,"CN(C[C@H](O)[C@@H](O)[C@H](O)[C@H](O)CO)C(=O)CCC[S+]([O-])c1ccc(Cl)c(CNC2(c3cnccc3-c3ccccc3OC3CC3)CC2)c1 (stereo partly drawn) [Compound I-647, 4-{4-chloro-3-[({1-[4-(2-cyclopropoxyphenyl)pyridin-3-yl]cyclopropyl}amino)methyl]benzenesulfinyl}-N-methyl-N-[(2S,3R,4R,5R)-2,3,4,5,6-pentahydroxyhexyl]butanamide]"
7,< 100,"CN(C[C@H](O)[C@@H](O)[C@H](O)[C@H](O)CO)C(=O)CCCSc1ccc(Cl)c(COC2(c3cnccc3-c3ccccc3OC3CC3)CC2)c1 [Compound I-648, 4-{[4-chloro-3-({1-[4-(2-cyclopropoxyphenyl)pyridin-3-yl]cyclopropoxy}methyl)phenyl]sulfanyl}-N-methyl-N-[(2S,3R,4R,5R)-2,3,4,5,6-pentahydroxyhexyl]butanamide]"
8,< 100,"O=C(CCCSc1ccc(Cl)c(CNC2(c3cnccc3-c3ccccc3OC3CC3)CC2)c1)NC[C@H](O)[C@@H](O)[C@H](O)[C@H](O)CO [Compound I-649, 4-({4-chloro-3-[({1-[4-(2-cyclopropoxyphenyl)pyridin-3-yl]cyclopropyl}amino)methyl]phenyl}sulfanyl)-N-[(2S,3R,4R,5R)-2,3,4,5,6-pentahydroxyhexyl]butanamide]"
9,< 100,"CN(C[C@H](O)[C@@H](O)[C@H](O)[C@H](O)CO)C(=O)CCCSc1ccc(Cl)c(CNC2(c3cnccc3-c3ccccc3OC3CC3)CC2)c1 [Compound I-650, 4-({4-chloro-3-[({1-[4-(2-cyclopropoxyphenyl)pyridin-3-yl]cyclopropyl}amino)methyl]phenyl}sulfanyl)-N-methyl-N-[(2S,3R,4R,5R)-2,3,4,5,6-pentahydroxyhexyl]butanamide]"
10,< 100,"Cc1ccc(SCCCC(=O)NC[C@H](O)[C@@H](O)[C@H](O)[C@H](O)CO)cc1COC1(c2cnccc2-c2ccccc2OC2CC2)CC1 [Compound I-651, 4-{[3-({1-[4-(2-cyclopropoxyphenyl)pyridin-3-yl]cyclopropoxy}methyl)-4-methylphenyl]sulfanyl}-N-[(2S,3R,4R,5R)-2,3,4,5,6-pentahydroxyhexyl]butanamide]"
11,< 100,"Cc1ccc(SCCCC(=O)N(C)C[C@H](O)[C@@H](O)[C@H](O)[C@H](O)CO)cc1COC1(c2cnccc2-c2ccccc2OC2CC2)CC1 [Compound I-652, 4-{[3-({1-[4-(2-cyclopropoxyphenyl)pyridin-3-yl]cyclopropoxy}methyl)-4-methylphenyl]sulfanyl}-N-methyl-N-[(2S,3R,4R,5R)-2,3,4,5,6-pentahydroxyhexyl]butanamide]"
12,1260 to 10000,"Cc1ccc(SCCCC(=O)NC[C@H](O)[C@@H](O)[C@H](O)[C@H](O)CO)nc1CNC1(c2cnccc2-c2ccccc2OC2CC2)CC1 [Compound I-653, 4-({6-[({1-[4-(2-cyclopropoxyphenyl)pyridin-3-yl]cyclopropyl}amino)methyl]-5-methylpyridin-2-yl}sulfanyl)-N-[(2S,3R,4R,5R)-2,3,4,5,6-pentahydroxyhexyl]butanamide]"
13,1260 to 10000,"Cc1ccc(SCCCC(=O)N(C)C[C@H](O)[C@@H](O)[C@H](O)[C@H](O)CO)nc1CNC1(c2cnccc2-c2ccccc2OC2CC2)CC1 [Compound I-654, 4-({6-[({1-[4-(2-cyclopropoxyphenyl)pyridin-3-yl]cyclopropyl}amino)methyl]-5-methylpyridin-2-yl}sulfanyl)-N-methyl-N-[(2S,3R,4R,5R)-2,3,4,5,6-pentahydroxyhexyl]butanamide]"
14,12600 to 50100,"Cc1cnc(SCCCC(=O)NC[C@H](O)[C@@H](O)[C@H](O)[C@H](O)CO)nc1CNC1(c2cnccc2-c2ccccc2OC2CC2)CC1 [Compound I-655, 4-({4-[({1-[4-(2-cyclopropoxyphenyl)pyridin-3-yl]cyclopropyl}amino)methyl]-5-methylpyrimidin-2-yl}sulfanyl)-N-[(2S,3R,4R,5R)-2,3,4,5,6-pentahydroxyhexyl]butanamide]"
15,12600 to 50100,"Cc1cnc(SCCCC(=O)N(C)C[C@H](O)[C@@H](O)[C@H](O)[C@H](O)CO)nc1CNC1(c2cnccc2-c2ccccc2OC2CC2)CC1 [Compound I-656, 4-({4-[({1-[4-(2-cyclopropoxyphenyl)pyridin-3-yl]cyclopropyl}amino)methyl]-5-methylpyrimidin-2-yl}sulfanyl)-N-methyl-N-[(2S,3R,4R,5R)-2,3,4,5,6-pentahydroxyhexyl]butanamide]"
16,1260 to 10000,"Cc1ccc(SCCCCC(=O)NC[C@H](O)[C@@H](O)[C@H](O)[C@H](O)CO)nc1COC1(c2cnccc2-c2ccccc2OC2CC2)CC1 [Compound I-657, 5-{[6-({1-[4-(2-cyclopropoxyphenyl)pyridin-3-yl]cyclopropoxy}methyl)-5-methylpyridin-2-yl]sulfanyl}-N-[(2S,3R,4R,5R)-2,3,4,5,6-pentahydroxyhexyl]pentanamide]"
